According to patent publication US20250000865A1, “COMPOUND FOR REDUCING URIC ACID LEVELS” (NEWSOARA BIOPHARMA CO., LTD., priority 2021, published 2025):

Test system: healthy subjects
Test: Phase I clinical trial, single-dose groups: uric acid index before and after treatment
Assay type: in vivo, human
Conditions: for Uric acid (UA) Mean / Uric acid (UA) Median / Uric acid (UA) Minimum value / Uric acid (UA) maximum value / Uric acid (UA) Changes over baseline at last visit (on day 6), Mean / Uric acid (UA) Changes over baseline at last visit (on day 6), Median / Uric acid (UA) Changes over baseline at last visit (on day 6), Minimum value / Uric acid (UA) Changes over baseline at last visit (on day 6), maximum value / Uric acid (UA) Changes over baseline on day 2, Mean / Uric acid (UA) Changes over baseline on day 2, Median / Uric acid (UA) Changes over baseline on day 2, Minimum value / Uric acid (UA) Changes over baseline on day 2, maximum value / Uric acid (UA) Changes over baseline on day 4, Mean / Uric acid (UA) Changes over baseline on day 4, Median / Uric acid (UA) Changes over baseline on day 4, Minimum value / Uric acid (UA) Changes over baseline on day 4, maximum value: N = 9
Procedure: The changes of uric acid levels in subjects in single-dose and multi-dose groups of Compound I are shown in FIG. 1A (single dose of 6 mg and single dose of 10 mg), FIG. 1B (single dose of 20 mg and single dose of 30 mg), and FIG. 2 (multi-dose of 10 mg and multi-dose of 20 mg). The corresponding results are also shown in Tables 1.1, 1.2, 1.3, and 2.1, and tables 2.2, 2.3, and 2.4.

[1] = Last visit (day 6), single dose 6 mg
[2] = Last visit (day 6), single dose 10 mg
[3] = Last visit (day 6), single dose 20 mg
[4] = Last visit (day 6), single dose 30 mg

COc1cccc2c1ncc1c(=O)n(C3CCC(C(=O)O)CC3)c(=O)n(-c3cccc(Cl)c3)c12 (stereo not shown) [Compound I, 4-[1-(3-chlorophenyl)-7-methoxy-2,4-dioxo-pyrimido[5,4-c]quinolin-3-yl]cyclohexanecarboxylic acid]
Uric acid (UA) Mean (Baseline, single dose 6 mg): 315.9 µmol/L
Uric acid (UA) Median (Baseline, single dose 6 mg): 319.0 µmol/L
Uric acid (UA) Minimum value (Baseline, single dose 6 mg): 185 µmol/L
Uric acid (UA) maximum value (Baseline, single dose 6 mg): 429 µmol/L
Uric acid (UA) Mean (Baseline, single dose 10 mg): 335.2 µmol/L
Uric acid (UA) Median (Baseline, single dose 10 mg): 330.0 µmol/L
Uric acid (UA) Minimum value (Baseline, single dose 10 mg): 224 µmol/L
Uric acid (UA) maximum value (Baseline, single dose 10 mg): 446 µmol/L
Uric acid (UA) Mean (Baseline, single dose 20 mg): 326.0 µmol/L
Uric acid (UA) Median (Baseline, single dose 20 mg): 320.0 µmol/L
Uric acid (UA) Minimum value (Baseline, single dose 20 mg): 256 µmol/L
Uric acid (UA) maximum value (Baseline, single dose 20 mg): 436 µmol/L
Uric acid (UA) Mean (Baseline, single dose 30 mg): 300.9 µmol/L
Uric acid (UA) Median (Baseline, single dose 30 mg): 277.0 µmol/L
Uric acid (UA) Minimum value (Baseline, single dose 30 mg): 209 µmol/L
Uric acid (UA) maximum value (Baseline, single dose 30 mg): 401 µmol/L
Uric acid (UA) Mean (Day 2, single dose 6 mg): 272.9 µmol/L
Uric acid (UA) Median (Day 2, single dose 6 mg): 272.0 µmol/L
Uric acid (UA) Minimum value (Day 2, single dose 6 mg): 160 µmol/L
Uric acid (UA) maximum value (Day 2, single dose 6 mg): 347 µmol/L
Uric acid (UA) Mean (Day 2, single dose 10 mg): 266.1 µmol/L
Uric acid (UA) Median (Day 2, single dose 10 mg): 254.0 µmol/L
Uric acid (UA) Minimum value (Day 2, single dose 10 mg): 161 µmol/L
Uric acid (UA) maximum value (Day 2, single dose 10 mg): 447 µmol/L
Uric acid (UA) Mean (Day 2, single dose 20 mg): 194.9 µmol/L
Uric acid (UA) Median (Day 2, single dose 20 mg): 209.0 µmol/L
Uric acid (UA) Minimum value (Day 2, single dose 20 mg): 105 µmol/L
Uric acid (UA) maximum value (Day 2, single dose 20 mg): 251 µmol/L
Uric acid (UA) Mean (Day 2, single dose 30 mg): 135.8 µmol/L
Uric acid (UA) Median (Day 2, single dose 30 mg): 144.0 µmol/L
Uric acid (UA) Minimum value (Day 2, single dose 30 mg): 60 µmol/L
Uric acid (UA) maximum value (Day 2, single dose 30 mg): 178 µmol/L
Uric acid (UA) Mean (Day 4, single dose 6 mg): 285.9 µmol/L
Uric acid (UA) Median (Day 4, single dose 6 mg): 300.0 µmol/L
Uric acid (UA) Minimum value (Day 4, single dose 6 mg): 193 µmol/L
Uric acid (UA) maximum value (Day 4, single dose 6 mg): 378 µmol/L
Uric acid (UA) Mean (Day 4, single dose 10 mg): 302.8 µmol/L
Uric acid (UA) Median (Day 4, single dose 10 mg): 304.0 µmol/L
Uric acid (UA) Minimum value (Day 4, single dose 10 mg): 199 µmol/L
Uric acid (UA) maximum value (Day 4, single dose 10 mg): 462 µmol/L
Uric acid (UA) Mean (Day 4, single dose 20 mg): 277.7 µmol/L
Uric acid (UA) Median (Day 4, single dose 20 mg): 279.0 µmol/L
Uric acid (UA) Minimum value (Day 4, single dose 20 mg): 179 µmol/L
Uric acid (UA) maximum value (Day 4, single dose 20 mg): 340 µmol/L
Uric acid (UA) Mean (Day 4, single dose 30 mg): 217.9 µmol/L
Uric acid (UA) Median (Day 4, single dose 30 mg): 232.0 µmol/L
Uric acid (UA) Minimum value (Day 4, single dose 30 mg): 140 µmol/L
Uric acid (UA) maximum value (Day 4, single dose 30 mg): 266 µmol/L
Uric acid (UA) Mean [1]: 327.2 µmol/L
Uric acid (UA) Median [1]: 341.0 µmol/L
Uric acid (UA) Minimum value [1]: 227 µmol/L
Uric acid (UA) maximum value [1]: 431 µmol/L
Uric acid (UA) Mean [2]: 357.3 µmol/L
Uric acid (UA) Median [2]: 367.0 µmol/L
Uric acid (UA) Minimum value [2]: 243 µmol/L
Uric acid (UA) maximum value [2]: 508 µmol/L
Uric acid (UA) Mean [3]: 341.1 µmol/L
Uric acid (UA) Median [3]: 358.0 µmol/L
Uric acid (UA) Minimum value [3]: 237 µmol/L
Uric acid (UA) maximum value [3]: 414 µmol/L
Uric acid (UA) Mean [4]: 287.4 µmol/L
Uric acid (UA) Median [4]: 283.0 µmol/L
Uric acid (UA) Minimum value [4]: 207 µmol/L
Uric acid (UA) maximum value [4]: 364 µmol/L
Uric acid (UA) Changes over baseline at last visit (on day 6), Mean (single dose 6 mg): 11.3 µmol/L
Uric acid (UA) Changes over baseline at last visit (on day 6), Median (single dose 6 mg): 22.0 µmol/L
Uric acid (UA) Changes over baseline at last visit (on day 6), Minimum value (single dose 6 mg): -48 µmol/L
Uric acid (UA) Changes over baseline at last visit (on day 6), maximum value (single dose 6 mg): 52 µmol/L
Uric acid (UA) Changes over baseline on day 2, Mean (single dose 6 mg): -43.0 µmol/L
Uric acid (UA) Changes over baseline on day 2, Median (single dose 6 mg): -32.0 µmol/L
Uric acid (UA) Changes over baseline on day 2, Minimum value (single dose 6 mg): -112 µmol/L
Uric acid (UA) Changes over baseline on day 2, maximum value (single dose 6 mg): 42 µmol/L
Uric acid (UA) Changes over baseline on day 4, Mean (single dose 6 mg): -30.0 µmol/L
Uric acid (UA) Changes over baseline on day 4, Median (single dose 6 mg): -18.0 µmol/L
Uric acid (UA) Changes over baseline on day 4, Minimum value (single dose 6 mg): -86 µmol/L
Uric acid (UA) Changes over baseline on day 4, maximum value (single dose 6 mg): 31 µmol/L
Uric acid (UA) Changes over baseline at last visit (on day 6), Mean (single dose 10 mg): 22.1 µmol/L
Uric acid (UA) Changes over baseline at last visit (on day 6), Median (single dose 10 mg): 19.0 µmol/L
Uric acid (UA) Changes over baseline at last visit (on day 6), Minimum value (single dose 10 mg): -27 µmol/L
Uric acid (UA) Changes over baseline at last visit (on day 6), maximum value (single dose 10 mg): 88 µmol/L
Uric acid (UA) Changes over baseline on day 2, Mean (single dose 10 mg): -69.1 µmol/L
Uric acid (UA) Changes over baseline on day 2, Median (single dose 10 mg): -70.0 µmol/L
Uric acid (UA) Changes over baseline on day 2, Minimum value (single dose 10 mg): -133 µmol/L
Uric acid (UA) Changes over baseline on day 2, maximum value (single dose 10 mg): 1 µmol/L
Uric acid (UA) Changes over baseline on day 4, Mean (single dose 10 mg): -32.4 µmol/L
Uric acid (UA) Changes over baseline on day 4, Median (single dose 10 mg): -29.0 µmol/L
Uric acid (UA) Changes over baseline on day 4, Minimum value (single dose 10 mg): -92 µmol/L
Uric acid (UA) Changes over baseline on day 4, maximum value (single dose 10 mg): 23 µmol/L
Uric acid (UA) Changes over baseline at last visit (on day 6), Mean (single dose 20 mg): 15.1 µmol/L
Uric acid (UA) Changes over baseline at last visit (on day 6), Median (single dose 20 mg): 9.0 µmol/L
Uric acid (UA) Changes over baseline at last visit (on day 6), Minimum value (single dose 20 mg): -34 µmol/L
Uric acid (UA) Changes over baseline at last visit (on day 6), maximum value (single dose 20 mg): 122 µmol/L
Uric acid (UA) Changes over baseline on day 2, Mean (single dose 20 mg): -131.1 µmol/L
Uric acid (UA) Changes over baseline on day 2, Median (single dose 20 mg): -130.0 µmol/L
Uric acid (UA) Changes over baseline on day 2, Minimum value (single dose 20 mg): -211 µmol/L
Uric acid (UA) Changes over baseline on day 2, maximum value (single dose 20 mg): -42 µmol/L
Uric acid (UA) Changes over baseline on day 4, Mean (single dose 20 mg): -48.3 µmol/L
Uric acid (UA) Changes over baseline on day 4, Median (single dose 20 mg): -62.0 µmol/L
Uric acid (UA) Changes over baseline on day 4, Minimum value (single dose 20 mg): -106 µmol/L
Uric acid (UA) Changes over baseline on day 4, maximum value (single dose 20 mg): 50 µmol/L
Uric acid (UA) Changes over baseline at last visit (on day 6), Mean (single dose 30 mg): -13.4 µmol/L
Uric acid (UA) Changes over baseline at last visit (on day 6), Median (single dose 30 mg): -20.0 µmol/L
Uric acid (UA) Changes over baseline at last visit (on day 6), Minimum value (single dose 30 mg): -75 µmol/L
Uric acid (UA) Changes over baseline at last visit (on day 6), maximum value (single dose 30 mg): 58 µmol/L
Uric acid (UA) Changes over baseline on day 2, Mean (single dose 30 mg): -165.1 µmol/L
Uric acid (UA) Changes over baseline on day 2, Median (single dose 30 mg): -152.0 µmol/L
Uric acid (UA) Changes over baseline on day 2, Minimum value (single dose 30 mg): -261 µmol/L
Uric acid (UA) Changes over baseline on day 2, maximum value (single dose 30 mg): -79 µmol/L
Uric acid (UA) Changes over baseline on day 4, Mean (single dose 30 mg): -83.0 µmol/L
Uric acid (UA) Changes over baseline on day 4, Median (single dose 30 mg): -69.0 µmol/L
Uric acid (UA) Changes over baseline on day 4, Minimum value (single dose 30 mg): -162 µmol/L
Uric acid (UA) Changes over baseline on day 4, maximum value (single dose 30 mg): -3 µmol/L
uric acid level in the subjects, overall clinical trial result (single-dose and multi-dose groups, p<0.05): reduces the uric acid level in the subjects significantly
uric acid level on the following days (days 4 and 6) (single-dose groups): gradually recovered
uric acid level the next day after administration (single-dose groups, certain dose dependence): decreases obviously
